# Measurements taken from US10385103B2, “Cell-permeable (ICP)-SOCS3 recombinant protein and uses thereof” (CELLIVERY THERAPEUTICS, INC., priority 2014, dated 2019).
# System: RAW 264.7 cells
# Assay: Quantitative cell-permeability of FITC-labeled aMTD- or rPeptide-fused CRA recombinant proteins (flow cytometry)
# Assay type: cell-based
# Conditions: for Relative Ratio to aMTD AVE: cell-permeability of rPeptide-fused CRA recombinant protein relative to average of 240 aMTDs
# Excerpt: The aMTDs and rPeptides were fluorescently labeled and compared based on the critical factors for cell-permeability by using flow cytometry and confocal laser scanning microscopy (FIGS. 5 to 8). The cellular uptake of the peptide-fused non-functional cargo recombinant proteins could quantitatively be evaluated in flow cytometry, while confocal laser scanning microscopy allows intracellular uptake to be assessed visually. The analysis included recombinant proteins fused to a negative control [rP38] that has opposite characteristics (hydrophilic and aromatic sequence: […] NO: 952)) to the aMTDs (hydrophobic and aliphatic sequences). Relative cell-permeability (relative fold) of aMTDs to the negative control was also analyzed (Table 23 and FIG. 9). […] RAW 264.7 cells were treated with 10 μM FITC-labeled recombinant proteins for 1 hour at 37° C., washed three times with cold PBS, treated with 0.25% tripsin/EDTA (Sigma-Aldrich, St. Louis, Mo.) for 20 minutes at 37° C. to remove cell-surface bound proteins. Cell-permeability of these recombinant proteins were analyzed by flow cytometry (Guava, Millipore, Darmstadt, Germany) using the FlowJo cytometric analysis software (FIGS. 5 to 6).
# [1] = cell-permeability of aMTD-fused CRA recombinant protein relative to negative control (A: rP38)
# [2] = cell-permeability of aMTD-fused CRA recombinant protein relative to reference CPP (B: MTM12)
# [3] = cell-permeability of aMTD-fused CRA recombinant protein relative to reference CPP (C: MTD85)
# [4] = cell-permeability relative to negative control rP38 (A type), aMTD-fused CRA recombinant protein, 10 μM FITC-labeled, 1 hour, 37° C., RAW 264.7 cells
# [5] = cell-permeability relative to reference CPP MTD85 (C type), aMTD-fused CRA recombinant protein, 10 μM FITC-labeled, 1 hour, 37° C., RAW 264.7 cells
# [6] = cell-permeability relative to reference CPP MTM12 (B type), aMTD-fused CRA recombinant protein, 10 μM FITC-labeled, 1 hour, 37° C., RAW 264.7 cells
# [7] = 10 μM FITC-labeled, 1 hour, 37° C., RAW 264.7 cells
# [8] = relative cell-permeability of rPeptide vs reference A (not defined)
# [9] = relative cell-permeability of rPeptide vs reference CPP B: MTM12
# [10] = relative cell-permeability of rPeptide vs reference CPP C: MTD85
Substance,Relative Ratio (Fold) A [4] [Fold],Relative Ratio (Fold) C [5] [Fold],Relative Ratio (Fold) B [6] [Fold],Relative Ratio to aMTD AVE [7],also measured
1 (AAALAPVVLALP; Amino acid Sequence of aMTD1) [compound 1],,,,,Relative Ratio (Fold) A [1]: 17.7 Fold; Relative Ratio (Fold) B [2]: 11.8 Fold; Relative Ratio (Fold) C [3]: 6.0 Fold
2 (AAAVPLLAVVVP; Amino acid Sequence of aMTD2) [compound 2],,,,,Relative Ratio (Fold) A [1]: 40.9 Fold; Relative Ratio (Fold) B [2]: 27.2 Fold; Relative Ratio (Fold) C [3]: 13.8 Fold; Relative Ratio (Fold) A (relative cell-permeability of aMTD vs reference A (not defined)): 40.9 Fold; Relative Ratio (Fold) B (relative cell-permeability of aMTD vs reference CPP B: MTM12): 27.2 Fold; Relative Ratio (Fold) C (relative cell-permeability of aMTD vs reference CPP C: MTD85): 13.8 Fold
3 (AALLVPAAVLAP; Amino acid Sequence of aMTD3) [compound 3],,,,,Relative Ratio (Fold) A [1]: 27.0 Fold; Relative Ratio (Fold) B [2]: 18.0 Fold; Relative Ratio (Fold) C [3]: 9.1 Fold
4 (ALALLPVAALAP; Amino acid Sequence of aMTD4) [compound 4],2.0,0.7,1.3,,
5 (AAALLPVALVAP; Amino acid Sequence of aMTD5) [compound 5],3.1,1.0,2.1,,
11 (VVALAPALAALP; Amino acid Sequence of aMTD11) [compound 11],,,,,Relative Ratio (Fold) A [1]: 9.5 Fold; Relative Ratio (Fold) B [2]: 6.3 Fold; Relative Ratio (Fold) C [3]: 3.2 Fold
12 (LLAAVPAVLLAP; Amino acid Sequence of aMTD12) [compound 12],2.2,0.7,1.5,,
13 (AAALVPVVALLP; Amino acid Sequence of aMTD13) [compound 13],7.0,2.4,4.7,,
16 (NNSCTTYTNGSQ; Amino acid Sequence of rPeptide ID 16) [compound 16],,,,0.08,Relative Ratio (Fold) A [8]: 1.6 Fold; Relative Ratio (Fold) B [9]: 1.1 Fold; Relative Ratio (Fold) C [10]: 0.5 Fold
17 (GGCSAPQTTCSN; Amino acid Sequence of rPeptide ID 17) [compound 17],,,,0.08,
18 (NYCCTPTTNGQS; Amino acid Sequence of rPeptide ID 18) [compound 18],,,,0.10,
21 (AVALLPALLAVP; Amino acid Sequence of aMTD21) [compound 21],,,,,Relative Ratio (Fold) A [1]: 18.9 Fold; Relative Ratio (Fold) B [2]: 12.6 Fold; Relative Ratio (Fold) C [3]: 6.4 Fold
24 (IALAAPALIVAP; Amino acid Sequence of aMTD24) [compound 24],2.3,0.8,1.6,,
25 (IVAVAPALVALP; Amino acid Sequence of aMTD25) [compound 25],2.4,0.8,1.6,,
26 (AAIALAAPLAIV; Amino acid Sequence of rPeptide ID 26) [compound 26],,,,0.65,
29 (VLPPLPVLPVLP; Amino acid Sequence of rPeptide ID 29) [compound 29],,,,0.07,Relative Ratio (Fold) A [8]: 1.4 Fold; Relative Ratio (Fold) B [9]: 0.9 Fold; Relative Ratio (Fold) C [10]: 0.5 Fold
38 (YYNQSTCGGQCY; Amino acid Sequence of rPeptide ID 38) [compound 38],,,,0.05,
39 (CYNTSPCTGCCY; Amino acid Sequence of rPeptide ID 39) [compound 39],,,,0.29,
43 (LLAAPLVVAAVP; Amino acid Sequence of aMTD43) [compound 43],2.1,0.7,1.4,,

Substance,Relative Ratio (Fold) A [4] [Fold],Relative Ratio (Fold) C [5] [Fold],Relative Ratio (Fold) B [6] [Fold],Relative Ratio to aMTD AVE [7],also measured
61 (VAALPVLLAALP; Amino acid Sequence of aMTD61) [compound 61],,,,,Relative Ratio (Fold) A [1]: 31.2 Fold; Relative Ratio (Fold) B [2]: 20.8 Fold; Relative Ratio (Fold) C [3]: 10.5 Fold
62 (VALLAPVALAVP; Amino acid Sequence of aMTD62) [compound 62],1.4,0.5,0.9,,
64 (AIVALPVAVLAP; Amino acid Sequence of aMTD64) [compound 64],,,,,Relative Ratio (Fold) A [1]: 15.8 Fold; Relative Ratio (Fold) B [2]: 10.6 Fold; Relative Ratio (Fold) C [3]: 5.3 Fold
65 (IAIVAPVVALAP; Amino acid Sequence of aMTD65) [compound 65],3.0,1.0,2.0,,
66 (AGVLGGPIMGVP; Amino acid Sequence of rPeptide ID 66) [compound 66],,,,0.13,
67 (LDAEVPLADDVP; Amino acid Sequence of rPeptide ID 67) [compound 67],,,,0.08,Relative Ratio (Fold) A [8]: 1.5 Fold; Relative Ratio (Fold) B [9]: 0.9 Fold; Relative Ratio (Fold) C [10]: 0.5 Fold
68 (VAPVLPAAPLVP; Amino acid Sequence of rPeptide ID 68) [compound 68],,,,0.32,
82 (AVVLAPVAAVLP; Amino acid Sequence of aMTD82) [compound 82],2.1,0.7,1.4,,
83 (LAVAAPLALALP; Amino acid Sequence of aMTD83) [compound 83],1.4,0.5,0.9,,
84 (AAVAAPLLLALP; Amino acid Sequence of aMTD84) [compound 84],1.5,0.5,1.0,,
85 (LLVLPAAALAAP; Amino acid Sequence of aMTD85) [compound 85],1.9,0.7,1.3,,
97 (ALLAAPPALLAL; Amino acid Sequence of rPeptide ID 97) [compound 97],,,,0.41,
105 (LLALAPAALLAP; Amino acid Sequence of aMTD105) [compound 105],4.0,1.3,2.6,,
113 (PVAVALLIAVPP; Amino acid Sequence of rPeptide ID 113) [compound 113],,,,0.61,
121 (AIVALPALALAP; Amino acid Sequence of aMTD121) [compound 121],2.5,0.8,1.7,,
124 (IAVALPALIAAP; Amino acid Sequence of aMTD124) [compound 124],,,,,Relative Ratio (Fold) A [1]: 43.6 Fold; Relative Ratio (Fold) B [2]: 29.0 Fold; Relative Ratio (Fold) C [3]: 14.7 Fold
139 (TGSTNSPTCTST; Amino acid Sequence of rPeptide ID 139) [compound 139],,,,0.17,
141 (AVIVLPALAVAP; Amino acid Sequence of aMTD141) [compound 141],,,,,Relative Ratio (Fold) A [1]: 9.4 Fold; Relative Ratio (Fold) B [2]: 6.3 Fold; Relative Ratio (Fold) C [3]: 3.2 Fold
